Experimental data from US10092537B2, “Use for PAI-1 inhibitor” (RENASCIENCE CO., LTD., priority 2013, dated 2018).

Assays:
[1] = test system: hematopoietic stem cells; test: Hematopoietic recovery after bone-marrow transplantation, compounds a, b, c (Experimental Example 5); format: in vivo, mice; conditions: for frequency of hematopoietic stem cells / self-renewal capacity of hematopoietic stem cells: compound a 100 mg/kg oral 4 days, compounds b and c 10 mg/kg oral 6 consecutive days after bone-marrow transplantation
Protocol: The procedures of Experimental Examples 4 (1) and 4 (4) were repeated using compounds b and c, instead of compound a, as a test compound.
Compound a was orally administered in an amount of 100 mg/kg for 4 consecutive days after bone-marrow transplantation. Compounds b and c were orally administered in an amount of 10 mg/kg for 6 consecutive days after bone-marrow transplantation.
Bone marrow was collected 1 and 3 weeks after bone-marrow transplantation. The total number of the whole bone-marrow cells (FIG. 9E), the proportion (%) of LSK-CD34 negative cells in the whole bone marrow (FIG. 9A), the total number of LSK-CD34 negative cells in the whole bone marrow (FIG. 9B), the proportion (%) of Lin-SLAM cells in the whole bone marrow (FIG. 9C), and the total number of Lin-SLAM cells in the whole bone marrow (FIG. 9D) were measured. The results are shown in the above-stated figures.

[2] = test system: CML cells; test: Chronic myelogenous leukemia model mice, CML cells engrafted onto bone marrow by FACS (Experimental Example 15); format: in vivo
Protocol: Chronic myelogenous leukemia model mice prepared in accordance with the procedure of Experimental Example 11 (1) were divided into 3 groups (each group: n=15) and administered respective test drugs.
Group 1: placebo group (physiological saline was administered via gavage)
Group 2: imatinib group (imatinib [150 mg/kg/day] was administered via gavage)
Group 3: imatinib+compound c group (imatinib [150 mg/kg/day] and compound c [10 mg/kg/day] were administered via gavage)
8 days (day 8) after the day on which CML cells were intravenously inoculated (day 0), administration of test drugs to the groups was started. The placebo group and the imatinib group were administered the respective test drugs once a day from day 8 to day 14 (7 doses in total). The imatinib+compound c group was administered imatinib once a day from day 8 to day 14 (7 doses in total), and also administered compound c once a day from day 8 to day 14 (7 doses in total).
CML cells engrafted onto bone marrow were analyzed by FACS immediately before the administration of a test drug (day 8; “immediately before antitumor agent treatment” in FIG. 19), immediately after the completion of administration of a test drug (day 14; “immediately after antitumor agent treatment” in FIG. 19), and day 28 from the start of administration of a test drug (day 36; “after 28 days” in FIG. 19). […] About 50% leukemia cells were grafted on the bone marrow immediately before administration of a test drug (day 8; “immediately before antitumor agent treatment” in FIG. 19). After the tumor-bearing mice were administered a test drug 7 times (day 14), the proportion of CML cells was analyzed. […] All of the mice in the group administered physiological saline died.

[3] = test system: HER2-positive human ovarian cancer cell lines SKOV3; test: SKOV3 ovarian cancer subcutaneous tumor, Herceptin and compound c (Experimental Example 18); format: in vivo, BALB/c-nude mice; conditions: Herceptin 5 mg/kg i.p. once + compound c 10 mg/kg/day oral (day 0-4, day 7-11); 45 days after administration
Protocol: HER2-positive human ovarian cancer cell lines SKOV3 (5×10^6) were subcutaneously inoculated into BALB/c-nude mice. For better cell engraftment, the mice were intraperitoneally administered 25 μl of anti-Asialo GM1 antibody (Wako Pure Chemical Industries, Ltd., Code No. 014-09801) 2 days and 1 day before the cancer cell inoculation. […] The group to which Herceptin and compound c were administered in combination is referred to as “compound c-combined group”, and the group to which Herceptin and physiological saline were administered in combination is referred to as “compound c-non-combined group.” The group to which only physiological saline was administered without Herceptin is referred to as “placebo group.”

[4] = 2-week repeated-dose toxicity test using rat (Experimental Example 6); format: in vivo, Sprague-Dawley rats; conditions: 200, 600 and 2,000 mg/kg/day oral, repeatedly for 2 weeks; male and female rats
Protocol: Compound a was orally administered in 0 (0.5 w/v % carmellose sodium solution), 200, 600 and 2,000 mg/kg/day dosages to a male rat group and a female rat group each containing 5 Sprague-Dawley rats (Crl:CD(SD), 6-week old at the onset of administration) repeatedly for 2 weeks, and a toxicity test was conducted.

[5] = Pharmacokinetics after oral gavage (Experimental Example 6); format: in vivo, male Wister rats; conditions: male, Wistar, rat, 50 mg/kg oral gavage, plasma, reversed-phase HPLC
Protocol: Compound a (50 mg/kg) was administered to male Wister rats (180-200 g) via oral gavage. Before administration (0 h), and 1, 2, 6 and 24 hours after the administration, blood was collected, and the concentration of compound a in plasma of each […] was analyzed by reversed-phase HPLC. The time at which the maximum drug concentration in blood is observed (Tmax), the maximum drug concentration (Cmax), and half-life (T½) were determined.

[6] = test system: long-term hematopoietic stem cells; test: Long-term hematopoietic stem cells: 15 weeks after transplantation, successive transplantation, limiting dilution (Experimental Example 10); format: in vivo, mice
Protocol: 15 weeks after bone-marrow transplantation, the control group, tPA group, and compound a-administered group (12 mice for each group) were measured for the number of bone-marrow mononucleic cells (BM MNC), frequency and absolute number of Lin-SLAM cells, and frequency of and absolute number LSK-CD34 negative cells.
15 weeks after the initial bone-marrow transplantation, bone marrow was collected from mice of the control group, tPA group, and compound a-administered group, and the collected bone marrow was transplanted into other mice (successive transplantation). In the successive transplantation, none of physiological saline, tPA, or compound a was administered.
12 weeks after successive transplantation, the chimerism of donor-derived bone marrow hematopoietic cells was measured.
To compare the frequency of long-term hematopoietic stem cell, donor-derived bone marrow to be transplanted first was diluted and transplanted, and the effect of PAI-1 inhibition was evaluated by a limiting dilution technique.
The collected bone-marrow mononucleic cells were diluted such that Ly5.1 positive bone-marrow mononucleic cell count gave 2×10E3, 6×10E3, 2×10E4, and 6×10E4, and then Ly5.1 positive bone-marrow mononucleic cells of each count were transplanted, together with 5×10E5 Ly5.2 positive competitor cells, into 20 mice. For transplantation, mice were divided into 2 groups, i.e., a compound a-administered group to which compound a was to be administered and a control group to which physiological saline was to be administered (8 groups in total), and the chimerism (the positive rate of Ly5.1 positive bone-marrow mononucleic cells) was measured 12 weeks after the transplantation.
Further, bone marrow was collected from the control groups and the compound a-administered groups to both of which Ly5.1 positive bone-marrow mononucleic cells of the above-described numbers were transplanted, and the collected bone marrow was successively transplanted into other mice. At the time successive transplantation was conducted, neither physiological saline nor the compound was administered. 12 weeks after the successive transplantation, bone marrow was collected from the mice, and Ly5.1 positive cells in the bone-marrow mononucleic cells were measured.
After successive transplantation, the frequency (CRU frequency) of hematopoietic stem cells having the hematopoietic regeneration capacity was calculated.

[7] = compound a 100 mg/kg oral, 4 consecutive days, 1 and 3 weeks after bone-marrow transplantation, versus vehicle

O=C(Nc1ccc(Cl)cc1C(=O)O)c1cccc(-c2ccccc2)c1 [Example 4, 2-[(biphenyl-3-ylcarbonyl)amino]-5-chlorobenzoic acid]
frequency of hematopoietic stem cells [1]: increase | self-renewal capacity of hematopoietic stem cells [1]: enhance | CML (leukemia) cells in the bone marrow ([2]; imatinib 150 mg/kg/day + compound c 10 mg/kg/day, day 8 to day 14, analysed day 36): 1.8% | proportion of CML cells in the bone marrow ([2]; imatinib + compound c, day 14, after 7 doses, about 50% before treatment): marked decrease | tumor volume versus other groups [3]: significantly smaller

O=C(COCC(=O)N1CCN(C(c2ccccc2)c2ccccc2)CC1)Nc1ccc(Cl)cc1C(=O)[O-].[Na+] [Example 30 (compound group 2), 2-(2-(2-(4-benzhydrylpiperazin-1-yl)-2-oxoethoxy)acetamido)-5-chlorobenzoic acid sodium salt]
frequency of hematopoietic stem cells [1]: increase | self-renewal capacity of hematopoietic stem cells [1]: enhance | plg level, tPA level, cKitL level, total MMP-9 level in the plasma and white blood cell count in the peripheral blood [1, 7]: significantly higher | proportion and total number of LSK-CD34 negative cells and Lin-SLAM cells in the whole bone marrow [1, 7]: significantly higher | change in general state, weight, food intake, urine test, hematological test, blood chemical test, pathological test [4]: no obvious change | Cmax [5]: 35700 ng/mL | Tmax [5]: 2 h | half-life ([5]; read-out: T½ (converted)): 2.5 h | chimerism of donor-derived bone marrow hematopoietic cells ([6]; 12 weeks after successive transplantation, compound given only at first transplantation): marked increase | number of bone-marrow mononucleic cells, frequency and absolute number of LSK-CD34 negative cells and of Lin-SLAM cells ([6]; 15 weeks after bone-marrow transplantation, among control, tPA and compound a groups): highest values | frequency of hematopoietic stem cells having the hematopoietic regeneration capacity, versus control ([6]; after successive transplantation): ≥ 6 time higher | chimerism (positive rate of Ly5.1 positive bone-marrow mononucleic cells) ([6]; limiting dilution 2×10E3 to 6×10E4 cells, 12 weeks after transplantation): significant increases
